The test system of series [1] is MDSC cultures. The series is described as follows: Insulin release from MDSC cultures (insulin ELISA). It counts as cell-based, human. The arrangement: insulin release with osmolarity control: dose or concentration left out as unconfirmed. As for the experimental part: Insulin release. MDSC cultures incubated in 24-well tissue culture plates (Costar, Cambridge, Mass.) at 70-80% confluence were treated for 4-5 days with LPS or CD40Ab. Insulin secretion was assessed as previously described in Schuit, F., et al., J. Biol. Chem. 272:18572-18579 (1997), using an insulin ELISA kit (Linco Research, MO). When required, the untreated or treated cultures were also pre-incubated for 30 min with […] diazoxide, 10 mM tolbudamide, or […] IBMX.

The test system of series [2] is MDSC colonies Clone 1 and Clone 2. The settings on record: seven days; for Immunostained cells (%), Keratins (Epithelial): 100 ng/ml EGF; for Immunostained cells (%), AFP (Hepatocyte): 50 ng/ml HGF; for Immunostained cells (%), vWF (Endothelial): 50 ng/ml VEGF; for Immunostained cells (%), MAP1-B (Neuronal): 200 ng/ml NGF. Here is the method: To determine whether progeny of colonies derived from single MDSCs can be induced to differentiate into distinct cell lineages, cells from a five-day, 50 ng/ml, M-CSF-treated culture enriched to contain 99.97% peripheral blood monocytes were inoculated into 12 U-bottom tissue culture plates, 96 wells each, at 0.8 cells/well in 0.1-0.2 ml growth medium. The cells were then incubated in the presence of 50 ng/ml M-CSF and 1,000 units/ml LIF for 15-20 days. Additionally, one plate was incubated with 25% conditioned medium from a five-day, 50 ng/ml, M-CSF treated culture. […] The few wells that contained more than one cell were excluded from further experimentation. Medium was replaced every 5-7 days.
At 45-52 days, these cells were dispersed by forceful pipetting, without lidocaine, into flat-bottom, 96-well, tissue culture plates. […] Two colonies of MDSCs, each of which had arisen from a single cell, were chosen for further differentiation experiments and were termed Clone 1 and Clone 2. […] These antibodies separately recognized cell-surface markers that included the T lymphocyte marker CD3, the epithelial marker keratin, the endothelial marker vWF, the neuronal marker MAP1-B, and the hepatocyte marker AFP.

Series [3] concerns MDSC cultures. The experiment in a line: EGF-induced epithelial cell differentiation of MDSC cultures. It counts as cell-based, human. The settings on record: 100 ng/ml EGF, 4 days. The text has this: To determine whether MDSCs differentiate into lineages other than those of blood cells, the ability to differentiate into epithelial cells was initially tested. […] Only 4±1% of control cells stained for keratins and 3±2% for E-cadherin. Cells that stained positive for E-cadherin consistently stained for keratins.

For series [4], the system named is MDSC cultures. The experiment in a line: HGF-induced hepatocyte differentiation of MDSC cultures. It counts as cell-based, human. From the text: A smaller fraction of 33±4% also immunostained for cytokeratin 7, which is a marker of bile duct epithelium (Ruck et al., Histopathology 31: 324-329 (1997)). Only 8±5% of control cells immunostained for albumin, 6±5% for AFP, and 7±3% for cytokeratin 7.

The test system of series [5] is MDSC cultures. The series is described as follows: VEGF-induced endothelial cell differentiation of MDSC cultures. To be noted: 50 ng/ml VEGF, 5-7 days.
Protocol: MDSC cultures prepared as described above were treated with 50 ng/ml of recombinant human vascular endothelial growth factor165 isoform (VEGF) for 5-7 days.
Series [6] deals with freshly cultured peripheral blood monocytes. The experiment in a line: bNGF treatment of freshly cultured peripheral blood monocytes. In kind it is cell-based, human. To be noted: bNGF for 7 or 20 days.
The test system of series [7] is MDSC cultures. The experiment in a line: bNGF-induced neuronal cell differentiation of MDSC cultures. It counts as cell-based, human. To be noted: 200 ng/ml bNGF. As for the experimental part: To examine the ability of MDSCs to mature along yet another cell lineage, the effect of nerve growth factor (bNGF), an inducer of neuronal differentiation (McAllister et al., Cell. Mol. Life Sci., 58:1054-1060 (2001)), was tested. […] After 5-8 days these processes, some of which were exceedingly long, formed cell-cell contacts and created the appearance of a neural network. These mature cells were further characterized by immunostaining for neuron-specific enolase (NSE), neurofilament (NF) and microtubule-associated protein-1B (MAP-1B), which are well-known markers of neuronal cells (Encinas et al., J. Neurochem., 75:991-1003 (2000)).

The subject of a further series is MDSCs. The experiment in a line: Dispersion of MDSCs from the culture dish by standard digestion. In kind it is cell-based, human. To be noted: standard digestion for up to 60 minutes. As for the experimental part:
In this example, a feature of the MDSCs is resistance to dispersion by trypsin and/or EDTA, or dispase. […] Therefore, to obtain cell suspensions for subculture, the MDSCs were dispersed by forceful pipetting after incubation with 2% lidocaine in a PBS solution for 5-8 minutes, with the exception of the work described in Example 8.

The test system of series [8] is human peripheral blood monocytes. The experiment in a line: Generation and growth of MDSCs in cultured peripheral blood monocytes (morphological examination). In kind it is cell-based. Here is the method:
Peripheral blood monocyte (PBM) preparations from about 50 ml buffy coats samples (each from 500 ml peripheral blood) of healthy individuals (LifeSource Blood Services, Glenview, Ill.) were obtained by a selective attachment method as previously described (Hoklland, M. et al., Cell Biology, a laboratory handbook, Celis J. E. ed., Academic Press, 1: 179-181 (1994)). Buffy coat cell samples of 20-25 ml, which were diluted earlier with an equal volume of RPMI 1640 medium (Life Technologies, Inc.), were carefully layered over 20 ml Ficoll-Hypaque (γ=1.077) in 50 ml centrifuge tubes and then centrifuged using a Beckman CPKR centrifuge and a GH-3.7 horizontal rotor at 3,500 rpm (2700 g) for 25 minutes at 4° C. After carefully harvesting the mononuclear cells at the interface, cells were washed 2-3 times with RPMI 1640 medium by centrifugation using a Beckman CPKR centrifuge and a GH-3.7 horizontal rotor at 1,000 rpm (250 g) for 10 minutes. The cells were then used for culture and/or stored in liquid nitrogen in a 90% bovine calf serum and 10% dimethyl sulfoxide solution. The cells, including those obtained from storage in liquid nitrogen, were incubated at 2-3×10^7 cells/15 cm dish. After 8-12 hours incubation at 37° C. (8% CO2), the floating cells were removed and the dishes were rinsed 5 times with RPMI 1640 medium. The attached cells were then detached from the surface of the dishes by forceful pipetting with 5-10 ml of RPMI 1640 medium supplemented with 10% bovine calf serum.
The percentage of PBM was verified by immunostaining with an R-phycoerythin-conjugated mouse anti-human CD14 monoclonal antibody using a Becton Dickinson FACScan. The fraction of CD14 cells in these cell preparations, which were usually used in the experiments, was 90-95%. In a number of experiments, the CD14-immunostained cells were further isolated to a purity of 99.97% by using a droplet cell-sorting method by means of a 5 detector Becton Dickinson FACStarPlus Cell Sorter. The isolated PBMs were inoculated at 1×10^5 cells/ml in 8-well LabTek chamber slides (Nunc, Inc., Naperville, Ill.) at 0.4 ml/well in a 37° C. humidified atmosphere containing 8% CO2. Every five to seven days, one-half of the culture medium was replaced with fresh growth medium. This medium consisted of RPMI-1640 supplemented with 10% heat-inactivated bovine calf serum (Harlan, Indianapolis, Ind.), 100 units/ml penicillin, 100 μg/ml streptomycin, and 2 mM L-glutamine (Life Technologies).
Five preparations of cultured human peripheral blood monocytes, each from a different individual, were treated with 50 ng/ml M-CSF (Zhoa et al., Proc. Natl. Acad. Sci., 100:2426-2431 (2003); incorporated herein by reference in its entirety). After five days of incubation, the cultures contained two major morphologically distinct subsets of cells. The less abundant of the two subsets, containing about 25-35% of the total cells, was composed of elongated cells that morphologically resembled fibroblasts and were termed monocyte-derived stem cells (MDSCs). The other subset, containing about 65-75% of the total, was composed of standard macrophages, which were termed s-macrophages or standard macrophages (s-MΦ) (FIG. 1). […]
In order to determine whether the MDSCs were simply replicating progenitors of s-MΦ, five preparations of cultured peripheral blood monocytes, each from a different human, were treated with 50 ng/ml M-CSF and the number of MDSCs and s-MΦ were determined over a period of 14 days by morphological examination. […]

Setting [9] is: 50 ng/ml M-CSF, five days, five monocyte preparations.

Read-outs that look alike come from different tables or passages of the source.

For the molecule `OC[C@@H](O)[C@@H](O)[C@H](O)[C@H](O)CO` [Mannite], in the series on MDSC cultures [1], the “insulin release with osmolarity control” value is “little to no insulin release”.
On to `CC1=NS(=O)(=O)c2cc(Cl)ccc2N1` [diazoxide], for which the “effect on LPS- or CD40Ab-induced insulin release” value with MDSC cultures [1] (high glucose, 30 min pre-incubation) was “effectively inhibited”.
With `CCCCNC(=O)NS(=O)(=O)c1ccc(C)cc1` [tolbutamide], in the series on MDSC cultures [1] (low glucose (5 mM), 30 minutes, 10 μM tolbudamide, 100 μM IBMX), the “effect on LPS- or CD40Ab-induced insulin release” value was “markedly stimulated”.
With “EGF: promoter of epithelial cell growth and differentiation”, the “Immunostained cells (%), Keratins (Epithelial)” value in [2] (Clone 1) is reported as 89%. The “Immunostained cells (%), Keratins (Epithelial)” value in series [2] (Clone 2) is 76%. Moreover, in the series with MDSC cultures [3], the “MDSCs displaying epithelial cell morphology” value is given as “about 70%”, the “cells immunostaining for E-cadherin” value is given as 68±5% and the “cells immunostaining for pan-keratins” value was 71±4%.
Consider “HGF: recombinant human hepatocyte growth factor”, for which, in the series on MDSC cultures [4] (100 ng/ml HGF, 5-7 days), the “cells displaying round or oval-like flattened morphology” value is given as 75-80%, the “cells immunostaining for cytokeratin 7” value worked out at 33±4%, the “treated cells immunostaining for AFP” value is recorded as 81±7% and the “treated cells immunostaining for albumin” value is recorded as 75±7%. In the series with MDSC cultures [4] (HGF 50 ng/ml (Table 3)), the “Percentage of cells displaying immunostaining for AFP” value amounted to 81 ± 7%, the “Percentage of cells displaying immunostaining for Albumin” value worked out at 75 ± 7% and the “Percentage of cells displaying immunostaining for Cytokeratin 7” value is 33 ± 4%. In series [2] (Clone 1), the “Immunostained cells (%), AFP (Hepatocyte)” value was 88%. The “Immunostained cells (%), AFP (Hepatocyte)” value in [2] (Clone 2) turned out to be 75%.
Turning to VEGF, in the series with MDSC cultures [5], the “cells displaying endothelial cell morphology” value is given as “about 70%”; the “cells immunostaining for VEGF-R2, VEGF-R3 and vWF” value came out at 74±3%; the “cells immunostaining for neuronal markers NSE, NF and MAP-1B” value turned out to be 31±4%. In addition, in series [2] (Clone 1), the “Immunostained cells (%), vWF (Endothelial)” value is given as 80%. Further, the “Immunostained cells (%), vWF (Endothelial)” value in [2] (Clone 2) is reported as 87%.
“bNGF: nerve growth factor, an inducer of neuronal differentiation”: the neuronal differentiation entry in series [6] is recorded as “Little to no neuronal differentiation”. Moreover, the “Immunostained cells (%), MAP1-B (Neuronal)” value turned out to be 83% in [2] (Clone 1) and 80% in series [2] (Clone 2). The “MDSCs displaying neuronal morphology” value in the series with MDSC cultures [7] is “about 90%”. Further, in the series with MDSC cultures [7] (5-8 days), the “cells with immunostaining for NSE, NF and MAP-1B” value was “about 90%”. In addition, the “cells with robust immunostaining for NSE, NF and MAP-1B” value in the series with MDSC cultures [7] (three days) is recorded as 25%.
trypsin: in the series on MDSCs, the “removal of MDSCs from the surface of the culture dish” value was “failed to remove the MDSCs”.

B1: M-CSF: macrophage colony-stimulating factor, mitogenic compound used to propagate MDSCs (protein, UniProt P09603 33-554, looked up)
Macrophage colony-stimulating …: EEVSEYCSHMIGSGHLQSLQRLIDSQMETSCQITFEFVDQEQLKDPVCYLKKAFLLVQDIMEDTMRFRDNTPNAIAIVQLQELSLRLKSCFTKDYEEHDKACVRTFYETPLQLLEKVKNVFNETKNLLDKDWNIFSKNCNNSFAECSSQDVVTKPDCNCLYPKAIPSSDPASVSPHQPLAPSMAPVAGLTWEDSEGTEGSSLLPGEQPLHTVDPGSAKQRPPRSTCQSFEPPETPVVKDSTIGGSPQPRPSVGAFNPGMEDILDSAMGTNWVPEEASGEASEIPVPQGTELSPSRPGGGSMQTEPARPSNFLSASSPLPASAKGQQPADVTGTALPRVGPVRPTGQDWNHTPQKTDHPSALLRDPPEPGSPRISSLRPQGLSNPSTLSAQPQLSRSHSSGSVLPLGELEGRRSTRDRRSPAEPEGGPASEGAARPLPRFNSVPLTDTGHERQSEGSFSPQLQESVFHLLVPSVILVLLAVGGLLFYRWRRRSHQEPQRADSPLEQPEGSPLTQDDRQVELPV
As to B1, the “MDSCs in confluent cultures” value in series [8] (50 ng/ml M-CSF, after day 10) is given as 80-90%. In [8] (50 ng/ml M-CSF, estimated from growth curve after 6 days), the “MDSC population replication interval” value is “three”. Also, in series [8] (setting [9]), the “MDSCs, share of the total cells” value is recorded as 25-35% and the “standard macrophages (s-MΦ), share of the total cells” value is recorded as 65-75%. In addition, the “cells with MDSC morphology” value in series [8] (50 ng/ml, 7-9 days) was 70-80%.

The values are drawn from US20050260158A1, “Human stem cell materials and methods” (priority 2003, published 2005).
